Data from patent publication US12410237B2, “Methods for purifying proteins having a tubulin carboxypeptidase activity and peptidic based inhibitors thereof” (CENTRE NATIONAL DE LA RECHERCHE SCIENTIFIQUE, priority 2017, dated 2025).
Entries after “also recorded” stand apart in the source; their conditions may differ.

Assays:
[1] = tested on: native TCPase activity in brain MAPs; experiment: detyrosination assay with 3H-tyrosine labelled microtubules and isolated brain MAPs; format: biochemical, pig; details: for inhibition of TCP activity in the MAPs fraction by peptides (in words): brain-derived MAPs, FIG. 11A; for inhibition of native TCPase activity in brain MAPs (in words): protease inhibitor treatment of brain MAPs, FIG. 5
Experimental: An assay involving radioactively labelled tyrosine (^3H—Y) was used to quantitatively determine the TCPase activity. Brain tubulin was isolated and purified and radioactively labelled with *Y by recombinant TTL. To do so, recombinant bacterially expressed purified TTL (>90% purity) was put in contact with micrograms of pig brain purified tubulin. The reaction sample was incubated for one hour at 37° C. in presence of radioactively labelled ^3H—Y and ATP. Following incorporation of ^3H—Y to tubulin, a polymerization cycle was performed by adding GTP and incubating for 30 min at 37° C. Next the samples are centrifuged and the obtained pellet was washed twice with PEM buffer. The resulting radioactively labelled MTs were store at −80° C. until further testing. […] After obtaining both purified recombinant TCPase candidate and radioactively labelled MTs, the proteins were put into contact and various amounts of TCPase were presented to MTs. Removal of the radioactive tyrosine by the candidate detyrosinase was measured by quantification of radioactivity in both the soluble and insoluble fraction of the reaction using a liquid scintillator counter.
To further gain insights in the potential protease that could embody the TCPase activity, the isolated MAPs from crude brain extracts were exposed to a selection of specific Cysteine, Aspartic, Metallo and Serine proteinase inhibitors were tested on the extract.
Recombinant bacterially expressed purified TTL (>90% purity) was put in contact with micrograms of pig brain purified tubulin. The reaction sample was incubated for one hour at 37° C. in presence of radioactively labeled ^3H—Y and ATP. Following incorporation of ^3H—Y to tubulin, a polymerization cycle was performed by adding GTP and incubating for 30 min at 37° C. Next, the samples were centrifuged and the obtained pellet was washed twice with PEM buffer. The resulting radioactively labeled MTs were store at −80° C. until further testing. The isolated MAPs from crude brain extracts (as obtained in example 1) were contacted to the radioactively labeled MTs in absence or presence of different peptidic inhibitors or an increasing concentration of peptidic inhibitor. Release of radioactive tyrosine by native TCPase containing brain MAPs was measured by quantification of radioactivity in both the soluble and insoluble fraction of the reaction using a liquid scintillator counter.

[2] = tested on: C2C12 cells; experiment: C2C12 myogenic differentiation, immunoblot of tubulin detyrosination and acetylation; format: cell-based, mouse; details: C2C12 myogenic differentiation time-course, FIG. 12
Experimental: C2C12 cells is an immortal cell line of mouse skeletal myoblasts originally derived from satellite cells from the thigh muscle cells. C2C12 cells were routinely grown at 37° C. in a CO2 incubator. Myogenic differentiation is initiated upon reaching confluence by switching the cells to medium containing 2% horse serum. Cells were collected at start of the myogenic differentiation and every two days over a period of 6 days for molecular analysis.
To further study the use of a TCPase inhibitor, C2C12 cells were treated with or without EEY peptide (FIG. 12). The protein expression of Myosin was monitored by western blotting as control for muscle differentiation. Vinculin acts as loading control. Acetylation and detyrosination of the microtubules was assessed. Whereas acetylation increases during differentiation (Ac-Tubulin) no difference in the status could be observed in the treated cells.

Row | Molecule | inhibition of TCP activity in the MAPs fraction by peptides (in words) [1] | inhibition of native TCPase activity in brain MAPs (in words) [1] | acetylation of the microtubules (Ac-Tubulin) [2] | tubulin detyrosination levels (Δ1-tubulin) [2]
1 | EDY: three amino acid peptide EDY inspired by the C-terminal sequence of tubulin | partially blocked | – | – | –
2 | NC(=O)CI [Iodoacetamide, reference compound] | – | complete inhibition | – | –
3 | EEY: tripeptide EEY inspired by the C-terminal sequence of alpha-tubulin, TCP inhibitor | almost fully inhibited | – | no difference | clearly inhibited detyrosination; also recorded: decrease
4 | CC(C)C[C@H](NC(=O)[C@H]1O[C@@H]1C(=O)O)C(=O)NCCCCN=C(N)N [E64, reference compound] | – | complete inhibition | – | –
